Results on 24 compounds are retold here after patent US8865750B2, “Small molecule inhibitors of RGS proteins” (The Regents of The University of Michigan, priority 2011, dated 2014).

pIC50: −log10 of the molar value. Where two headings read alike, the source gives them in different places.

One assay concerns HEK293 cells. Briefly: Calcium mobilization induced by compound alone.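 For Calcium transient (% 50014): percent of response to 10 µM reference CCG-50014.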 Format: cell-based. The following applies: for Emax at 10 µM: Homo sapiens, HEK293, read-out: Calcium transient (% 50014); for induction of calcium transient by compound alone: 10 μM, HEK293 cells. The procedure:
Calcium Mobilization Experiments:
A stable cell line was developed based upon the HEK-293 Flp-In TREx cell line (Invitrogen, Carlsbad, Calif.) that stably express the muscarinic M3 receptor and have human RGS4 expression under doxycycline control. Cells were maintained in DMEM supplemented with 10% fetal bovine serum and Penicillin (100 units/ml)-Streptomycin (100 μg/ml) under 5% CO2 at 37° C. For experiments, cells were split into 96-well black, clear bottom, poly-D-lysine coated microtiter plates (Nunc, Cat. #152037) at a density of 20,000 cells/well in DMEM containing 10% fetal bovine serum and Penicillin (100 units/ml), Streptomycin (100 μg/ml). RGS4 expression was induced by supplementing the medium with 1 μg/mL doxycycline for 24-48 hours before experimentation. Cells were loaded with Fluo-4 No Wash dye in buffer for 30 minutes at 37° C. Compounds and/or carbachol were added to the wells and the fluorescence intensity was measured using a FlexStation (Molecular Devices, Sunnyvale, Calif.) plate reader. Data analysis was performed by calculating the area under the curve or maximal fluorescence intensity from a 120 second kinetic measurement.
In general terms: Calcium assays in cells follow changes in intracellular calcium, usually with a dye or a luminescent sensor.

Another assay addresses RGS8 (Homo sapiens (Human), UniProt P57771). Briefly: FCPIA: Gαo binding to RGS8. The following applies: for RGS8 Hill Slope: Table 3; for pIC50: read-out: RGS8 IC50. From the text: (§1) FCPIA Dose Response and Reversibility Experiments:
The next assay has as its system RGS4. As to the kind of experiment: FCPIA: Gαo binding to RGS4. As to conditions: for RGS4 Hill Slope: Table 3; for pIC50: read-out: RGS4 IC50.
From the text: as §1

Setting [1] is: Table 3, duplex FCPIA, average of two experiments.

Chain of RGS8 (P57771 other isoform, or with tags, fused parts or gaps): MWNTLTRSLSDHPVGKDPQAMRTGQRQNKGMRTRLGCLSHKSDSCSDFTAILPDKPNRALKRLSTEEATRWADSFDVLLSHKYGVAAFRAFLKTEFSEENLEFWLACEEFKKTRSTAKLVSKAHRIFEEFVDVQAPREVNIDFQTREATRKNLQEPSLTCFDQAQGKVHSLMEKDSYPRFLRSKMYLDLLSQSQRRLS

Take `O=c1sn(-c2ccccc2)c(=O)n1Cc1ccccc1` [CCG-203722, 2-phenyl-4-benzyl-1,2,4-thiadiazoline-3,5-dione]: the Emax at 10 µM with HEK293 cells is 3.8%. Besides, the “RGS8 Hill Slope” value at RGS8 is listed as −0.80. In addition, the pIC50 is 5.25 on RGS8 (Table 6, FCPIA) and 7.62 on RGS4 (setting [1]). In the assay with RGS4, the “RGS4 Hill Slope” value is listed as −1.89.
In the case of `O=c1sn(-c2ccc(Cl)cc2)c(=O)n1Cc1ccccc1` [CCG-203723, 2-(4-chlorophenyl)-4-benzyl-1,2,4-thiazolidine-3,5-dione], the Emax at 10 µM with HEK293 cells was determined as 120%. Further, the “RGS8 Hill Slope” value at RGS8 is −0.80. Also, the pIC50 was 5.28 on RGS8 (setting [1]) and 7.54 at RGS4 (setting [1]). The “RGS4 Hill Slope” value in the assay on RGS4 is listed as −1.99.
Consider `O=c1sn(-c2ccc(Cl)c(Cl)c2)c(=O)n1Cc1ccccc1` [CCG-203725], for which the Emax at 10 µM in the assay on HEK293 cells is 64.2%. Besides, the “RGS8 Hill Slope” value on RGS8 was −1.62. Also, the pIC50 at RGS8 (Table 6, FCPIA) was 4.88; on RGS4 (setting [1]) it was 7.05. In the assay on RGS4, the “RGS4 Hill Slope” value was −2.06.
For `O=c1sn(-c2ccccc2)c(=O)n1Cc1ccc(F)cc1` [CCG-203726, 2-phenyl-4-(4-fluorobenzyl)-1,2,4-thiadiazolidine-3,5-dione], in that order: 20.9%, −0.82, 5.21, 7.80 and −1.42.
Consider `O=c1sn(-c2ccc(Cl)c(Cl)c2)c(=O)n1Cc1ccc(F)cc1` [CCG-203728, 2-(3,4-dichlorophenyl)-4-(4-fluorobenzyl)-1,2,4-thiadiazolidine-3,5-dione], for which the Emax at 10 µM in the assay on HEK293 cells was determined as 128%. At RGS8, the “RGS8 Hill Slope” value is reported as −1.78. The pIC50 on RGS8 (setting [1]) is 4.76; at RGS4 (setting [1]), 7.44. For the same compound, in the assay with RGS4, the “RGS4 Hill Slope” value is on record as −1.15.
As to `Cc1ccc(-n2sc(=O)n(Cc3ccc(Cl)cc3)c2=O)cc1` [CCG-203731, 2-p-tolyl-4-(4-chlorobenzyl)-1,2,4-thiadiazolidine-3,5-dione], the Emax at 10 µM in the assay with HEK293 cells is -2.6%. The “RGS8 Hill Slope” value on RGS8 is recorded as −1.50. Besides, the pIC50 at RGS8 (Table 6, FCPIA) is 4.93; on RGS4 (Table 6, FCPIA), 8.27. Besides, the “RGS4 Hill Slope” value with RGS4 was −0.70.
As to `Cc1ccc(Cn2sc(=O)n(Cc3ccccc3)c2=O)cc1` [CCG-203734, 2-(4-methylbenzyl)-4-benzyl-1,2,4-thiadiazolidine-3,5-dione], the Emax at 10 µM in the assay with HEK293 cells worked out at 591%. Further, on RGS8, the “RGS8 Hill Slope” value is −0.66. In addition, the negative-log IC50 (pIC50) at RGS8 (setting [1]) is 4.69; at RGS4 (Table 6, FCPIA), 8.14. For the same compound, the “RGS4 Hill Slope” value with RGS4 was −0.84.
For `COc1ccc(-n2sc(=O)n(Cc3ccc(F)cc3)c2=O)cc1` [CCG-203735, 2-(4-methoxyphenyl)-4-(4-fluorobenzyl)-1,2,4-thiadiazolidine-3,5-dione], the Emax at 10 µM in the assay with HEK293 cells came to 6.2%. Also, the “RGS8 Hill Slope” value on RGS8 is listed as −1.27. Also, the pIC50 is 4.94 on RGS8 (Table 6, FCPIA) and 7.96 on RGS4 (setting [1]). For the same compound, in the assay with RGS4, the “RGS4 Hill Slope” value is −1.33.
As for `Cc1ccc(Cn2c(=O)sn(-c3ccc(C)cc3)c2=O)cc1` [CCG-203736, 2-p-tolyl-4-(4-methylbenzyl)-1,2,4-thiadiazolidine-3,5-dione], in the assay on HEK293 cells, the Emax at 10 µM is 4.9%. Besides, the “RGS8 Hill Slope” value on RGS8 is −1.45. In addition, the pIC50 on RGS8 (setting [1]) was 4.94; at RGS4 (Table 6, FCPIA), 8.07. In addition, in the assay on RGS4, the “RGS4 Hill Slope” value is recorded as −1.35.
Consider `Cc1ccc(Cn2sc(=O)n(Cc3ccc(F)cc3)c2=O)cc1` [CCG-203742, 2-(4-methylbenzyl)-4-(4-fluorobenzyl)-1,2,4-thiadiazolidine-3,5-dione], for which, in the assay with HEK293 cells, the Emax at 10 µM came to 108%. Further, at RGS8, the “RGS8 Hill Slope” value was −0.22. For the same compound, the figures for the pIC50 on RGS8 (setting [1]) and on RGS4 (setting [1]) were 4.40 and 7.89, respectively. The “RGS4 Hill Slope” value with RGS4 is reported as −1.19.
On the same counts, the results for `Cc1ccc(-n2sc(=O)n(Cc3ccc(Cl)c(Cl)c3)c2=O)cc1` [CCG-203743, 2-p-tolyl-4-(3,4-dichlorobenzyl)-1,2,4-thiadiazolidine-3,5-dione] are 45.6%, −0.65, 4.80, 7.47 and −1.43.
On the same counts, the results for `COc1ccc(-n2sc(=O)n(Cc3ccccc3)c2=O)cc1` [CCG-203746, 2-(4-methoxyphenyl)-4-benzyl-1,2,4-thiadiazolidine-3,5-dione] are 74.6%, −1.00, 4.91, 7.62 and −1.45.
Consider `CCCCn1sc(=O)n(C)c1=O` [CCG-203757, 2-butyl-4-methyl-1,2,4-thiadiazolidine-3,5-dione], for which, in the assay with HEK293 cells, the Emax at 10 µM was 138%. Further, at RGS8, the “RGS8 Hill Slope” value is reported as −1.10. Besides, the pIC50 on RGS8 (setting [1]) was 4.55; at RGS4 (Table 6, FCPIA) it was 7.63. In addition, the “RGS4 Hill Slope” value in the assay on RGS4 is −1.01.
As for `Cc1ccc(-n2sc(=O)n(C)c2=O)cc1` [CCG-203759, 2-p-tolyl-4-methyl-1,2,4-thiadiazolidine-3,5-dione], in the assay on HEK293 cells, the Emax at 10 µM came to 238%. Besides, the “RGS8 Hill Slope” value on RGS8 was −1.06. Moreover, the pIC50 at RGS8 (Table 6, FCPIA) was 5.08; at RGS4 (setting [1]), 7.72. Moreover, the “RGS4 Hill Slope” value in the assay on RGS4 is listed as −1.56.
Regarding `Cn1c(=O)sn(C(C)(C)C)c1=O` [CCG-203760, 2-t-butyl-4-methyl-1,2,4-thiadiazolidine-3,5-dione], in the assay on HEK293 cells, the “induction of calcium transient by compound alone” value is reported as “no ability to induce calcium mobilization” and the Emax at 10 µM turned out to be 47.2%. The “RGS8 Hill Slope” value on RGS8 is given as −0.89. In addition, the pIC50 on RGS8 (Table 6, FCPIA) was 4.25. Besides, the “RGS4 Hill Slope” value in the assay on RGS4 is recorded as −0.99. Moreover, the pIC50 on RGS4 (setting [1]) was 7.55.
For `Cc1ccc(-n2sc(=O)n(CC(C)C)c2=O)cc1` [CCG-203761, 2-p-tolyl-4-isobutyl-1,2,4-thiadiazolidine-3,5-dione], in the assay with HEK293 cells, the Emax at 10 µM was 98.9%. For the same compound, the “RGS8 Hill Slope” value on RGS8 is recorded as −0.92. Moreover, the pIC50 was 5.11 at RGS8 (Table 6, FCPIA) and 7.85 at RGS4 (Table 6, FCPIA). The “RGS4 Hill Slope” value in the assay with RGS4 is listed as −1.47.
Turning to `CCn1sc(=O)n(CC(C)C)c1=O` [CCG-203762, 2-ethyl-4-isobutyl-1,2,4-thiadiazolidine-3,5-dione], the “induction of calcium transient by compound alone” value in the assay on HEK293 cells was “no ability to induce calcium mobilization”. Also, the Emax at 10 µM in the assay on HEK293 cells worked out at 38.3%. Moreover, the “RGS8 Hill Slope” value on RGS8 is reported as −0.78. Besides, the pIC50 at RGS8 (Table 6, FCPIA) is 4.15; at RGS4 (setting [1]) it was 7.59. The “RGS4 Hill Slope” value with RGS4 is given as −0.87.
Take `CC(C)Cn1c(=O)sn(C(C)(C)C)c1=O` [CCG-203763, 2-t-butyl-4-isobutyl-1,2,4-thiadiazolidine-3,5-dione]: the Emax at 10 µM in the assay with HEK293 cells is 73.5%. Besides, the “RGS8 Hill Slope” value at RGS8 is −0.52. The pIC50 on RGS8 (setting [1]) is 3.71; on RGS4 (setting [1]), 7.54. For the same compound, the “RGS4 Hill Slope” value with RGS4 is on record as −0.85.
For `CCCCn1sc(=O)n(Cc2ccc(F)cc2)c1=O` [CCG-203765, 2-butyl-4-(4-fluorobenzyl)-1,2,4-thiadiazolidine-3,5-dione], in that order: 184%, −0.59, 4.50, 7.80 and −0.81.
For `CCCCn1c(=O)sn(-c2ccc(C)cc2)c1=O` [CCG-203767, 2-p-tolyl-4-butyl-1,2,4-thiadiazolidine-3,5-dione], the Emax at 10 µM in the assay with HEK293 cells is 123%. Besides, the “RGS8 Hill Slope” value at RGS8 is recorded as −0.96. For the same compound, the pIC50 at RGS8 (Table 6, FCPIA) was 5.02; on RGS4 (setting [1]) it was 7.70. The “RGS4 Hill Slope” value with RGS4 is given as −1.46.
`CCCCn1c(=O)sn(C(C)(C)C)c1=O` [CCG-203768, 2-t-butyl-4-butyl-1,2,4-thiadiazolidine-3,5-dione]: the Emax at 10 µM in the assay on HEK293 cells is 91.7%. In addition, the “RGS8 Hill Slope” value at RGS8 is recorded as −0.70. Further, the pIC50 on RGS8 (setting [1]) is 3.92; at RGS4 (setting [1]) it was 7.27. Besides, in the assay with RGS4, the “RGS4 Hill Slope” value is recorded as −3.18.
For `CCCCn1sc(=O)n(CCCC)c1=O` [CCG-203770, 2,4-dibutyl-1,2,4-thiadiazolidine-3,5-dione], in that order: 188%, −0.53, 3.91, 7.52 and −0.83.
For `O=c1sn(-c2cccc(C(F)(F)F)c2)c(=O)n1Cc1ccccc1` [CCG-203772], in that order: 165%, −1.15, 4.79, 7.24 and −1.43.
In the case of `Cc1cccc(Cn2c(=O)sn(-c3cccc(C(F)(F)F)c3)c2=O)c1` [S23, 2-(3-trifluoromethylphenyl)-4-(3-methylbenzyl)-1,2,4-thiadiazolidine-3,5-dione], the Emax at 10 µM in the assay on HEK293 cells was found to be 65.2%. Further, the “RGS8 Hill Slope” value on RGS8 is −1.03. Also, the pIC50 at RGS8 (setting [1]) is 4.80; on RGS8 (Table 6, FCPIA), 4.80.

The pIC50 is the IC50 on a negative log10 scale, so that one unit is a factor of ten.
